According to patent publication US20130095068A1, “AGENT FOR TREATING HCV INFECTION” (priority 2010, published 2013):
pEC50: −log10 of the molar value. “Also recorded” adds a separate entry of the source.

Tests used:
HCV 1b genotype = experiment: Lowering effect on serum HCV RNA levels in HCV-infected human hepatocyte-transplanted mice (PXB mice); format: in vivo, Hepatitis C virus; conditions: oral; for Change in serum HCV RNA levels, average: day 14 versus day 0
Description: The lowering effect on serum HCV RNA levels was measured to determine the HCV replication inhibitory-effect of a compound of formula (I) of the invention were determined by measuring the serum HCV RNA levels.
Human hepatocyte-transplanted model mice (PXB mice) were prepared from uPA^+/+/SCID mice as host mice. The uPA^+/+/SCID mice are characterized by a combination of liver damage and serious immune deficiency complications. Commercially available frozen human hepatocytes (BD Biosciences, MA, USA) were grafted by infusion into the spleens of male or female uPA^+/+/SCID mice that had reached a postnatal age of 2 to 4 weeks, to create human hepatocyte-transplanted mice (PXB mice) having at least 70% of the mouse liver parenchymal cells replaced with human hepatocytes. […] HCV 1b genotype-infected patient serum (PhoenixBio) was injected through the orbital socket to a virus titer of 1×10^4 copies/mouse as measured by RT-PCR (Life Technologies Corporation, Carlsbad, USA), for the HCV infection. […] […] The number of mice per group was five. The solvent alone was used as a negative control. Administration was done once per day for 14 consecutive days. With the initial administration as day 0, blood was collected on day 0, 1, 3, 7, 10, 14, 17 and 21, and the serum HCV RNA levels were measured.
The percent change of blood HCV RNA levels in 14 days, which was 24 hours after final dosing (13 day), from those in day 0, which was predose, was calculated for each individual.

[1] = tested on: HCV subgenomic replicon (LucNeo#2 replicon cells); experiment: Replicon assay, intracellular luciferase activity in LucNeo#2 replicon cells; format: cell-based, Hepatitis C virus; conditions: for Luciferase activity: 72 hours, percentage of solvent-treated group; for HCV replication inhibitory-activity (in words): LucNeo#2 replicon cells, 3.3 and 10 μM
From the text: The inhibitory-effect on HCV replication and the cytotoxicity of a compound of formula (I) of the invention were examined by a replicon assay method using different HCV subgenomic replicon cells from Example 1, specifically LucNeo#2 replicon cells. The LucNeo#2 replicon cells are reporter cells created with the same concept as the luc-ubi-neo/ET replicon cells used in Test Example 1, and are utilized for analysis of the RNA replication mechanism of HCV or anti-HCV drug evaluation, but the gene sequence differs from that of luc-ubi-neo/ET replicon cells (Biochem. Biophys. Res. Commun. 343 (2006) 879-884).
(§1) LucNeo#2 replicon cells cultured to confluency were recovered by trypsin treatment, and were spread on a collagen-coated plate at a density of 20,000 cells/mL. The cell culture was conducted in an incubator at 37° C., 5% CO2, with 10% FCS/DMEM (containing mixed solution of penicillin-streptomycin, G418 and a non-essential amino acid). After 24 hours, the cells were rinsed and a compound of formula (I) was added as Test compound to final concentrations of 3.3 μM or 10 μM. At 72 hours after addition of the Test compound, the cells of one plate were rinsed, the cells were lysed with M-PER, and the intracellular luciferase activity was measured using a Promega kit. An Alamar Blue solution was also added to cells cultured under the same conditions, and the cytotoxicity was examined.
(§2) The intracellular luciferase activity and the Alamar Blue signal for cytotoxicity at 72 hours after Test compound addition were shown in Table 3 as a percentage with respect to the solvent-treated group.

[2] = Cytotoxicity, CytoTox-1 Cell Proliferation Assay in ET replicon cells; format: cell-based; conditions: human, luc-ubi-neo/ET HCV genotype 1b subgenomic replicon cells; Test compound alone, 50% reduction in viable cells, maximum concentration 1.1 μM
Description: The HCV subgenome replicon cells used were luc-ubi-neo/ET replicon cells, having the genotype 1b HCV auto-replicating subgenomic replicon, a luciferase reporter, ubiquitin, a neomycin phosphotransferase coding sequence, and three mutations for cell culturing (Pietschmann, T. et al., J. Virol. 76:4008-4021, 2002). The ET replicon cells were cultured in DMEM containing 10% FBS, 1% penicillin/streptomycin, 1% glutamine, and 250 μg/mL G418 in an incubator at 37° C., 5% CO2. For culturing with a Test compound of formula (I), it was performed under the same conditions in DMEM containing 5% FBS, 1% penicillin/streptomycin and 1% glutamine. The ET replicon cells were cultured in two 96-well plates, at 5000 cell/well, separately. On the following day, the Test compound alone diluting to different concentrations with a maximum concentration of 1.1 μM, was added to one plate, while human recombinant Interferon-α-2b (rIFNα-2b) at a fixed concentration of 0.1 IU/mL was added to another plate with the Test compound, simultaneously. At 72 hours after addition, the luciferase activity indicating amplification of HCV mRNA was measured. The cytotoxicity was measured with a CytoTox-1 Cell Proliferation Assay (Promega Corporation). […]

[3] = tested on: genotype 1b HCV auto-replicating subgenomic replicon (luc-ubi-neo/ET replicon cells); experiment: Replicon assay, luciferase activity in luc-ubi-neo/ET HCV subgenome replicon cells; format: cell-based, Hepatitis C virus; conditions: for pEC50: Hepatitis C virus, 72 h, read-out: HCV replication inhibitory activity EC50; for Selectivity IC50/EC50 / Luciferase activity: Test compound alone; for Luciferase activity: 72 hours, percentage of solvent alone
From the text: The inhibitory-effect on HCV replication and the cytotoxicity of a compound of formula (I) of the invention was examined by a replicon assay using HCV subgenome replicon cells.
The HCV subgenome replicon cells used were luc-ubi-neo/ET replicon cells, having the genotype 1b HCV auto-replicating subgenomic replicon, a luciferase reporter, ubiquitin, a neomycin phosphotransferase coding sequence, and three mutations for cell culturing (Pietschmann, T. et al., J. Virol. 76:4008-4021, 2002). The ET replicon cells were cultured in DMEM containing 10% FBS, 1% penicillin/streptomycin, 1% glutamine, and 250 μg/mL G418 in an incubator at 37° C., 5% CO2. For culturing with a Test compound of formula (I), it was performed under the same conditions in DMEM containing 5% FBS, 1% penicillin/streptomycin and 1% glutamine. The ET replicon cells were cultured in two 96-well plates, at 5000 cell/well, separately. On the following day, the Test compound alone diluting to different concentrations with a maximum concentration of 1.1 μM, was added to one plate, while human recombinant Interferon-α-2b (rIFNα-2b) at a fixed concentration of 0.1 IU/mL was added to another plate with the Test compound, simultaneously. At 72 hours after addition, the luciferase activity indicating amplification of HCV mRNA was measured. The cytotoxicity was measured with a CytoTox-1 Cell Proliferation Assay (Promega Corporation).
The luciferase activities, for the compound of formula (I) alone and for a combination of the compound of formula (I) and rIFNα-2b, were shown in Table 1 as percentage with respect to luciferase activity when using the solvent alone. The HCV replication inhibitory-activity was determined as the concentration which produced 50% inhibition of HCV replicon (EC50), and the cytotoxicity was determined as the concentration which produced 50% reduction in viable cells (IC50), while the selectivity was determined as the value of IC50/EC50; the results are summarized in Table 2.

LucNeo#2 replicon cells = experiment: Cytotoxicity, Alamar Blue in LucNeo#2 replicon cells; format: cell-based; conditions: 72 hours, percentage of solvent-treated group
Description: as §1, §2

[4] = used in combination with rIFNα-2b

| SMILES | Change in serum HCV RNA levels, average (HCV 1b genotype; 10 mg/kg/day once per day for 14 days) | Change in serum HCV RNA levels, average (HCV 1b genotype; 30 mg/kg/day once per day for 14 days) | Change in serum HCV RNA levels, average (HCV 1b genotype; 100 mg/kg/day once per day for 14 days) | Serum HCV RNA level (in words) (HCV 1b genotype; 14 days) | Luciferase activity ([1]; 3.3 μM) | Luciferase activity ([1]; 10 μM) | HCV replication inhibitory-activity (in words) [1] | IC50 at 72 h [2] | pEC50 [3] | Selectivity IC50/EC50 [3] | Luciferase activity ([3]; 0.001 μM) | Luciferase activity ([3]; 0.003 μM) | Luciferase activity ([3]; 0.03 μM) | Luciferase activity ([3]; 0.11 μM) | Luciferase activity ([3]; 0.35 μM) | Luciferase activity ([3]; 1.1 μM) | HCV replication inhibitory-activity (in words) ([3]; Test compound used alone) | HCV replication inhibitory-activity (in words) [3, 4] | Cytotoxicity (Alamar Blue signal) (LucNeo#2 replicon cells; 3.3 μM) | Cytotoxicity (Alamar Blue signal) (LucNeo#2 replicon cells; 10 μM) |
| --- | --- | --- | --- | --- | --- | --- | --- | --- | --- | --- | --- | --- | --- | --- | --- | --- | --- | --- | --- | --- |
| COc1cc(/C=C2\CCCN([C@@H](C)c3ccc(F)cc3)C2=O)ccc1-n1cnc(C)c1 [Test compound A, (E)-1-[(1S)-1-(4-fluorophenyl)ethyl]-3-[3-methoxy-4-(4-methyl-1H-imidazol-1-yl)benzylidene]piperidin-2-one] | 73.0% | 50.4% | 32.6% | dose-dependent reduction in serum HCV RNA level | 116.60% | 42.80% | potent HCV replication inhibitory-activity by reducing the luciferase activity in a dose-dependent manner | > 1100 nM | 6.44 | >3.06 | 87% | 89% | 87% | 89% | 51% | 21% | approximately dose-dependent HCV replication inhibitory-activity; also recorded: potent HCV replication inhibitory-activity at lower concentrations than the concentrations for the cytotoxicity | more potent reduction of HCV replication with dose-dependent manner; also recorded: even more potent HCV replication inhibitory-activity at lower concentrations than the concentrations for the cytotoxicity | 100.00% | 101.50% |
| COc1cc(/C=C2\CC[C@H]3COC[C@@H](c4cc(F)c(F)c(F)c4)N3C2=O)ccc1-n1cnc(C)c1 [Test compound B, (E)-(4R,9aS)-7-[3-methoxy-4-(4-methyl-1H-imidazol-1-yl)benzylidene]-4-(3,4,5-trifluorophenyl)hexahydropyrido[2,1-c][1,4]oxazin-6-one] |  |  |  |  | 50.30% | 27.80% | potent HCV replication inhibitory-activity by reducing the luciferase activity in a dose-dependent manner | > 1100 nM | 6.51 | >3.55 | 72% | 73% | 62% | 68% | 48% | 30% | approximately dose-dependent HCV replication inhibitory-activity; also recorded: potent HCV replication inhibitory-activity at lower concentrations than the concentrations for the cytotoxicity | more potent reduction of HCV replication with dose-dependent manner; also recorded: even more potent HCV replication inhibitory-activity at lower concentrations than the concentrations for the cytotoxicity | 101.00% | 100.75% |
| COc1cc(/C=C2\CCCN([C@@H](CO)c3ccc(F)cc3)C2=O)ccc1-n1cnc(C)c1 [Test compound C, (E)-1-[(1R)-1-(4-fluorophenyl)-2-hydroxyethyl]-3-[3-methoxy-4-(4-methyl-1H-imidazol-1-yl)benzylidene]piperidin-2-one] |  |  |  |  | 93.50% | 55.00% | potent HCV replication inhibitory-activity by reducing the luciferase activity in a dose-dependent manner |  |  |  |  |  |  |  |  |  |  |  | 101.00% | 102.00% |
